Source: article PMC6572189, “Functional Fragments of AIMP1-Derived Peptide (AdP) and Optimized Hydrosol for Their Topical Deposition by Box-Behnken Design” (Molecules, 2019)

Columns and labels:
[1] = tested on: Foreskin fibroblasts (HFF-1); test: Collagen ELISA (procollagen type I in culture media); type: cell-based; settings: Fr3 0.1 μg/mL versus EGF 1 μg/mL, HFF-1 foreskin fibroblasts, 24 h
Method: (§1) Figure 1 Fibroblast-activating (FA) and melanin-inhibiting (MI) domain mapping of AIMP1-derived peptide (AdP): (a) Foreskin fibroblasts were treated with EGF (1 μg/mL), AdP (0.1 μg/mL), and fragments of AdP (Fr1–Fr6; 0.1 μg/mL). After 24 h incubation, procollagen type I was determined in cultured media by ELISA; (b) after 48 h incubation, CCK8-assay was performed to monitor the proliferation of foreskin fibroblasts; (c) melanocytes, pre-treated with α-MSH (0.5 μM), were treated with albutin (At, 10 μM), AdP (1 μg/mL) and fragments of AdP (Fr1–Fr6, 1 μg/mL). After 48 h incubation, intracellular melanin was measured.
Foreskin fibroblast cells (HFF-1; 5 × 10^4 cells/well) were seeded at a 24-well culture plate. Before peptide treatment, cells were pre-incubated with serum-free DMEM media for 6 h. Cells were treated with AdP, hEGF (Sigma-Aldrich, St. Louis, MO, USA) and fragments of AdP for 24 h. After 24 h treatment, media were harvested for collagen ELISA assay. Procollagen type I in the culture media was determined by Procollagen type I ELISA kit (Takara, Kusatsu, Japan) in accordance with the manufacturer instructions. Procollagen type I amount in the media was normalized by the Procollagen type I amount of control group.

monocytes (THP-1 cells) = test: Immunogenicity test (TNF-α ELISA); type: cell-based, human; settings: 10 or 100 μg/mL, 12 h, TNF-α ELISA of cultured media, normalized to control, n = 3
Method: (§2) Figure 2 Non-cytotoxicity and non-immunogenicity of FA-AdP and MI-AdP: (a) To test cytotoxicity of FA-AdP and MI-AdP, keratinocytes (HaCaT cells) were incubated with doxorubicin (Dox, 10 μM), AdP (100 μg/mL), FA-AdP (10 or 100 μg/mL), and MI-AdP (10 or 100 μg/mL). After 24 h incubation, cytotoxicity was determined by CCK-8 assay; (b) for the immunogenicity test, monocytes (THP-1 cells) were used. After 12 h incubation with LPS (50 ng/mL), AdP (100 μg/mL), FA-AdP (10 or 100 μg/mL), and MI-AdP (10 or 100 μg/mL), the TNF-α level was measured in cultured media by ELISA.
(§3) The safety of FA-AdP and MI-AdP was verified in terms of cytotoxicity and immunogenicity. To test the cytotoxicity of the peptides, keratinocytes (HaCaT; 3 × 10^3 cells/well) were seeded into 96-well plate and cultivated. Cells were incubated with doxorubicin (Dox, 10 μM), AdP (100 μg/mL), FA-AdP (10 or 100 μg/mL), or MI-AdP (10 or 100 μg/mL). After 24 h incubation, cytotoxicity was determined by CCK-8 assay (Dojindo) according to the manufacturer’s manual. The immunogenicity of the peptides was evaluated by performing TNF-α ELISA. THP-1 cells (5 × 10^4 cells/well) were seeded on a 24-well plate. Cells were pre-incubated with 1% FBS containing media for 6 h. […] TNF-α amount in conditioned media was assessed by human TNF-α ELISA kit (BD Bioscience, San Jose, CA, USA) in accordance with the manufacturer instructions. […]

[2] = tested on: keratinocytes (HaCaT cells); test: Cytotoxicity test (CCK-8); type: cell-based; settings: 10 or 100 μg/mL (up to 100 μg/mL), 24 h, CCK-8 assay, n = 3
Method: as §2, §3

[3] = tested on: Foreskin fibroblasts (HFF-1); test: Fibroblast proliferation assay (CCK-8); type: cell-based; settings: Fr3 0.1 μg/mL versus EGF 1 μg/mL; HFF-1 foreskin fibroblasts, 48 h, CCK-8 assay
Method: as §1
Foreskin fibroblast cells (HFF-1; 3 × 10^3 cells/well) were seeded into 96-well plate and cultivated. Cells were replaced with serum-free media and then treated with AdP, hEGF, and fragments of AdP for 48 h. Cell proliferation was determined CCK-8 assay (Dojindo, Kumamoto, Japan) in accordance with the manufacturer instructions. Proliferation was normalized by the proliferation of control group.

Melanocytes (B16F10) = test: Measurement of intracellular melanin in α-MSH induced melanocytes; type: cell-based; settings: α-MSH 0.5 μM, 48 h
Method: as §1
Melanocytes (B16F10; 1 × 10^5 cells/well) were seeded into 6-well plate and cultivated. To induce melanin synthesis, α-MSH (0.5 μM), melanin inducer, was used. AdP and fragments of AdP were treated with α-MSH (0.5 μM) for 48 h. Intracellular melanin and tyrosinase activity were monitored as previously reported. Briefly, melanocytes (1 × 10^5 cells,) were lysed with 1 N NaOH at 70 °C for 1 h. Intracellular melanin was determined in lysed samples by 490 nm wavelength absorbance using microplate reader (Synergy 2, BioTek, Winooski, VM, USA).

Substance	collagen induction, more potent than EGF [1]	TNF-α level compared with that of the control group (monocytes (THP-1 cells))	cytotoxicity in keratinocytes [2]	fibroblast proliferation, more potent than EGF [3]	inhibition effect on melanin synthesis, higher than albutin (Melanocytes (B16F10); Fr4 1 μg/mL versus albutin 10 μM)	inhibition of melanin synthesis induced by α-MSH, compared with AdP (Melanocytes (B16F10); 1 μg/mL, intracellular melanin by absorbance at 490 nm, mean n = 3, versus AdP 1 μg/mL)
Fr3: 14–28 residue fragment of AIMP1; fibroblast-activating domain of AdP (KGAEADQIIEYLKQQ; UniProt Q12904 14-28, looked up, fragment)	15%	no significant difference	no cytotoxicity	10%	–	–
Fr4: 18–32 residue fragment of AIMP1; melanocyte-inhibiting domain of AdP (ADQIIEYLKQQVSLL; UniProt Q12904 18-32, looked up, fragment)	–	no significant difference	no cytotoxicity	–	35%	comparable inhibition
